Experimental findings from PubChem BioAssay (NCI) are described below.

Some test systems named below: HT29 colon; SF-539 CNS; HOP-62 NSCLC; OVCAR-8 ovarian; IGROV1 ovarian; UACC-257 melanoma; HCT-15 colon; MCF7 breast; SN12C renal; CAKI-1 renal.
Assay in all cases: inhibition of tumour cell growth, NCI panel, 48 h

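Protocol summary: plate cells (96-well), add compound at 5 concentrations, incubate 48 h, interpolate endpoints linearly. Here, GI50 denotes the concentration required for 50% inhibition of growth. At the TGI there is no net growth.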

Turning to `O=S(=O)(CCOCc1ccc(-c2ccc3ncnc(Nc4ccc(OCc5cccc(F)c5)c(Cl)c4)c3c2)o1)c1ccccc1`, the GI50 in the assay with HT29 colon, in the assay on SF-539 CNS, in the assay with HOP-62 NSCLC, with OVCAR-8 ovarian, with IGROV1 ovarian and in the assay with UACC-257 melanoma was more than 25 µM each time. Moreover, the GI50 with HCT-15 colon is more than 25 µM; in the assay on MCF7 breast, more than 25 µM; with SN12C renal, more than 25 µM; in the assay with CAKI-1 renal, 0.831 µM. For the same compound, the TGI in the assay on HT29 colon, in the assay with SF-539 CNS, in the assay with HOP-62 NSCLC, with OVCAR-8 ovarian, in the assay on IGROV1 ovarian and in the assay on UACC-257 melanoma was more than 25 µM in each case. Besides, the TGI with HCT-15 colon, in the assay on MCF7 breast, in the assay on SN12C renal and in the assay with CAKI-1 renal was more than 25 µM each time.

As to `O=S1(=O)NCCCN1CCNc1nccc(-c2c(-c3cccc(O)c3)nc3sccn23)n1`, the GI50 with HT29 colon was 7.65 µM; in the assay on SF-539 CNS, 33.5 µM; in the assay on HOP-62 NSCLC it was 42.3 µM; in the assay with OVCAR-8 ovarian, 2.86 µM; in the assay with IGROV1 ovarian, 11.3 µM; with UACC-257 melanoma, 2.99 µM. Besides, the GI50 was 43.6 µM in the assay with HCT-15 colon, 29.5 µM in the assay with MCF7 breast, 10.2 µM with SN12C renal and 17.4 µM in the assay with CAKI-1 renal. For the same compound, the TGI with HT29 colon was more than 100 µM; with SF-539 CNS, more than 100 µM; in the assay with HOP-62 NSCLC it was more than 100 µM; with OVCAR-8 ovarian, more than 100 µM; in the assay on IGROV1 ovarian, 64.4 µM; with UACC-257 melanoma, more than 100 µM. Moreover, the TGI was more than 100 µM in the assay with HCT-15 colon, more than 100 µM in the assay with MCF7 breast, more than 100 µM in the assay on SN12C renal and more than 94 µM in the assay with CAKI-1 renal.

For the compound `Cc1ccccc1Nc1nc2c(s1)C(=O)c1ccccc1C2=O`, the TGI was found to be 40.7 µM in the assay on HT29 colon; 12.7 µM with SF-539 CNS; 30.2 µM in the assay with HOP-62 NSCLC; 9.05 µM in the assay on OVCAR-8 ovarian; 26.4 µM in the assay on IGROV1 ovarian; 12.4 µM in the assay with UACC-257 melanoma. For the same compound, the TGI in the assay with HCT-15 colon is 10.7 µM; with MCF7 breast, 4.36 µM; with SN12C renal it was 6.32 µM; in the assay on CAKI-1 renal it was 30.3 µM.

`CCCCCCCCCCCC[n+]1ccccc1` (tested in a mixture with another compound): the GI50 in the assay with HT29 colon was 0.28 µM; in the assay with SF-539 CNS it was 1.43 µM; with HOP-62 NSCLC, 1.15 µM; in the assay with OVCAR-8 ovarian, 0.777 µM; in the assay on IGROV1 ovarian, 0.519 µM; with UACC-257 melanoma it was 0.772 µM. In addition, the GI50 is 3.8 µM in the assay with HCT-15 colon, 1.04 µM in the assay on MCF7 breast, 1.19 µM in the assay with SN12C renal and 1.01 µM in the assay on CAKI-1 renal. The TGI in the assay with HT29 colon came to 4.21 µM; in the assay with SF-539 CNS, 3.44 µM; in the assay with HOP-62 NSCLC, 3.59 µM; in the assay on OVCAR-8 ovarian it was 11.3 µM; in the assay on IGROV1 ovarian, 2.28 µM; in the assay with UACC-257 melanoma, 2.88 µM. For the same compound, the TGI worked out at 19.3 µM with HCT-15 colon, 5.5 µM with MCF7 breast, 3.43 µM in the assay with SN12C renal and 9.03 µM in the assay with CAKI-1 renal.

As to `Cn1cc(-c2csc(-c3cn(C)c4ccccc34)n2)c2cnccc21`, the GI50 is 1.98 µM in the assay with HT29 colon; 1.75 µM with SF-539 CNS; 1.67 µM in the assay with HOP-62 NSCLC; 2.68 µM with OVCAR-8 ovarian; 1.61 µM with IGROV1 ovarian; 1.94 µM in the assay on UACC-257 melanoma. In addition, the GI50 in the assay with HCT-15 colon is 1.51 µM; with MCF7 breast, 0.324 µM; in the assay with SN12C renal, 1.66 µM; with CAKI-1 renal, 2.58 µM. Further, the TGI with HT29 colon was 3.71 µM; with SF-539 CNS it was 3.2 µM; with HOP-62 NSCLC, 3.85 µM; in the assay on OVCAR-8 ovarian, 6.7 µM; in the assay with IGROV1 ovarian, 3.24 µM; in the assay on UACC-257 melanoma it was 3.5 µM. The TGI in the assay with HCT-15 colon was 3.2 µM; in the assay on MCF7 breast it was 1.66 µM; in the assay with SN12C renal it was 3.1 µM; with CAKI-1 renal it was 9.12 µM.

`O=C(c1ccc2ccccc2c1)c1c(C(F)(F)F)n([O-])c2ccc(Cl)cc2[n+]1=O`: the GI50 in the assay on HT29 colon was 1.52 µM; in the assay with SF-539 CNS, 1.58 µM; in the assay with HOP-62 NSCLC it was 1.86 µM; in the assay on OVCAR-8 ovarian it was 1.55 µM; in the assay with IGROV1 ovarian it was 0.334 µM; with UACC-257 melanoma, 1.68 µM. Moreover, the GI50 in the assay with HCT-15 colon was 1.55 µM; in the assay with MCF7 breast, 0.417 µM; in the assay on SN12C renal it was 1.69 µM; with CAKI-1 renal, 1.63 µM. The TGI came out at 2.93 µM with HT29 colon; 2.92 µM with SF-539 CNS; 3.46 µM with HOP-62 NSCLC; 2.91 µM with OVCAR-8 ovarian; 1.06 µM in the assay on IGROV1 ovarian; 3.13 µM in the assay on UACC-257 melanoma. Further, the TGI with HCT-15 colon came out at 2.94 µM; with MCF7 breast, 1.43 µM; with SN12C renal it was 3.2 µM; with CAKI-1 renal, 3.01 µM.

Regarding `NC(=O)C1(N2CCCCC2)CCN(CCCC(=O)c2ccc(F)cc2)CC1`, the GI50 in the assay with HT29 colon is 0.818 µM; in the assay on SF-539 CNS, 1.42 µM; in the assay with HOP-62 NSCLC it was 3.41 µM; in the assay on OVCAR-8 ovarian, 4.91 µM; with IGROV1 ovarian, 7.28 µM; with HCT-15 colon, 24.7 µM. Besides, the GI50 in the assay on MCF7 breast was 0.108 µM; with SN12C renal, 5.24 µM; with CAKI-1 renal, 26.6 µM. In addition, the TGI was more than 20 µM in the assay with HT29 colon; 13.6 µM with SF-539 CNS; more than 100 µM in the assay with HOP-62 NSCLC; more than 100 µM with OVCAR-8 ovarian; more than 100 µM with IGROV1 ovarian; more than 100 µM with UACC-257 melanoma. Further, the TGI in the assay on HCT-15 colon, in the assay with MCF7 breast, with SN12C renal and with CAKI-1 renal was more than 100 µM in each case.

For `CNC(=O)c1cc2c(Oc3ccc(NC(=O)C4(C(=O)Nc5ccc(F)cc5)CC4)cc3)ccnc2cc1OC`, the GI50 in the assay on HT29 colon is 2.42 µM; with SF-539 CNS, 0.463 µM; with HOP-62 NSCLC, 2.67 µM; in the assay with OVCAR-8 ovarian, 3.77 µM; in the assay on IGROV1 ovarian it was 2.32 µM; in the assay on UACC-257 melanoma, 3.12 µM. In addition, the GI50 in the assay with HCT-15 colon is 2.77 µM; in the assay with MCF7 breast, 2.55 µM; with SN12C renal, 1.1 µM; in the assay on CAKI-1 renal, 1.52 µM. Also, the TGI with HT29 colon is more than 100 µM; with SF-539 CNS, 6.56 µM; in the assay with HOP-62 NSCLC it was more than 100 µM; with OVCAR-8 ovarian, more than 100 µM; in the assay on IGROV1 ovarian, 8.96 µM; with UACC-257 melanoma it was more than 100 µM. In addition, the TGI in the assay on HCT-15 colon was more than 100 µM; with MCF7 breast, more than 100 µM; with SN12C renal, more than 100 µM; in the assay with CAKI-1 renal, 3.33 µM.
